Measurements published in patent publication US12048680B2, “Use of Gemfibrozil and derivative thereof for treatment and/or prevention of neurodegenerative disease” (Kunming Institute of Zoology Chinese Academy of Sciences, priority 2018, dated 2024).

Experiments:
Aβ plaques = experiment: Immunohistochemical staining of Aβ plaques with Aβ (4G8) antibodies; assay type: in vivo; conditions: brain tissue of APP/PS1ΔE9 mouse, vs control group (A-C in FIG. 5)
astrocytes and microglia = experiment: Immunofluorescence staining of mouse brain tissue, glia co-localization with Aβ plaques; assay type: in vivo; conditions: brain tissue of APP/PS1ΔE9 mice
insoluble Aβ = experiment: ELISA of insoluble Aβ in mouse brain tissue; assay type: in vivo; conditions: hippocampus and cortex tissues, vs control group (C in FIG. 4)
Procedure: (§1) Gemfibrozil was administered to 8-month-old APP/PS1ΔE9 mice (male and female halves). Gemfibrozil was first dissolved in dimethyl sulfoxide (DMSO) at a concentration of 50 mg/mL, and then diluted to a final concentration of 50 μg/mL with mouse drinking water to obtain a drug solution. The mice in the administration group were allowed to freely drink the drug solution containing gemfibrozil, in which the final concentration of DMSO in the solution was 0.1%; and the mice in the control group were allowed to drink water containing 0.1% DMSO freely. All drinking devices contained with Gemfibrozil were wrapped in aluminum foil to prevent decomposition by exposure. During dosing, the drug solution was replaced every 2 days. Mice were measured daily for water consumption. After 2 months of dosing, all mice were subjected to behavioural experiments. Mice were placed in the laboratory to be behaviourally tested one hour prior to the start of daily behavioural studies, and all behavioural experiments were completed between 9 and 17 o'clock. All experiments involving animals were approved by Animal Ethics Committee of the Kunming Institute of Zoology, CAS. 8. Content of insoluble Aβ in mouse brain tissue by ELISA The content of insoluble Aβ in brain tissue was detected by an ELISA kit (Elabscience), and the experiment was performed according to the instructions of the ELISA kit.

hippocampal neurons = experiment: Golgi staining, dendritic spine density in mouse brain neurons; assay type: in vivo; conditions: hippocampal neurons of APP/PS1ΔE9 mice treated for 2 months (C-D in FIG. 3)
Procedure: as §1, with “7. […]” for “8. Content of insoluble Aβ in mouse brain tissue by ELISA The content of insoluble Aβ in brain tissue was detected by an ELISA kit (Elabscience), and the experiment was performed according to the instructions of the ELISA kit.”

APP/PS1ΔE9 mice = experiment: Open field experiment (anxiety symptoms); assay type: in vivo, mouse; conditions: 2 months of administration
Procedure: as §1, with “We evaluated the anxiety symptom behavior” for “8. Content”, “APP/PS1ΔE9 mice 2 months after administration” for “insoluble Aβ in mouse brain tissue by ELISA The content”, “Gemfibrozil using” for “insoluble Aβ in brain tissue was detected by”, “open field experiment. […]” for “ELISA kit (Elabscience), and the experiment was performed according to the instructions of the ELISA kit.”

PSD-95 protein = experiment: Immunohistochemical staining of mouse brain tissue for PSD-95; assay type: in vivo; conditions: hippocampus of APP/PS1ΔE9 mice treated for 2 months (A-B in FIG. 3)

Cc1ccc(C)c(OCCCC(C)(C)C(=O)O)c1 [Gemfibrozil, 2,2-dimethyl-5-(2,5-dimethylphenoxy) pentanoic acid]
deposition of Aβ plaques labeled with Aβ (4G8) antibodies (Aβ plaques): significantly reduced
degree of co-localization of the marker Iba1 for microglia with Aβ plaques (astrocytes and microglia; vs control APP/PS1ΔE9 mice (A-B in FIG. 6)): significantly increased
degree of co-localization of GFAP for astrocytes with Aβ plaques (astrocytes and microglia; vs control APP/PS1ΔE9 mice (C-D in FIG. 6)): significantly increased
amount of insoluble Aβ40 (insoluble Aβ): significantly reduced
amount of insoluble Aβ42 (insoluble Aβ): significantly reduced
ratio of insoluble Aβ42 and Aβ40 (insoluble Aβ): did not change significantly
dendritic spine density (hippocampal neurons): significantly up-regulated
anxiety symptoms (APP/PS1ΔE9 mice; vs control group): significantly alleviated
lingering time in the open field central region (APP/PS1ΔE9 mice; vs control group (A, C in FIG. 2)): significantly increased
PSD-95 immunoreactivity (PSD-95 protein): significantly up-regulated
